Where a name gives a salt, the structure may show the parent alone.

For assay [1], the system named is 3β-hydroxysterol synthesis. Nature of the assay: Test B. In Vivo Cholesterol Biosynthesis Inhibition Test. The settings on record: Rattus norvegicus, po; rats, orally administered, 0.01-200 mg/kg body weight; read-out: ED50, dose producing a 50% inhibition of 3β-hydroxysterol synthesis.
Method: Test B. In Vivo Cholesterol Biosynthesis Inhibition Test:
In this test the rats are orally administered the test substance (compound of Formula I) at dose of 0.01-200 mg/kg. body weight. The obtained ED50 is the dose of the test substance observed or calculated to produce a 50% inhibition of 3β-hydroxysterol synthesis.
The target of a further assay is T1, HMG-CoA reductase (Rattus norvegicus, UniProt P51639).
T1 construct: from tissue; host or cells: microsomes (printed); rat liver, Sprague-Dawley, by own knowledge of the cited method
T1 sequence (P51639 1-887): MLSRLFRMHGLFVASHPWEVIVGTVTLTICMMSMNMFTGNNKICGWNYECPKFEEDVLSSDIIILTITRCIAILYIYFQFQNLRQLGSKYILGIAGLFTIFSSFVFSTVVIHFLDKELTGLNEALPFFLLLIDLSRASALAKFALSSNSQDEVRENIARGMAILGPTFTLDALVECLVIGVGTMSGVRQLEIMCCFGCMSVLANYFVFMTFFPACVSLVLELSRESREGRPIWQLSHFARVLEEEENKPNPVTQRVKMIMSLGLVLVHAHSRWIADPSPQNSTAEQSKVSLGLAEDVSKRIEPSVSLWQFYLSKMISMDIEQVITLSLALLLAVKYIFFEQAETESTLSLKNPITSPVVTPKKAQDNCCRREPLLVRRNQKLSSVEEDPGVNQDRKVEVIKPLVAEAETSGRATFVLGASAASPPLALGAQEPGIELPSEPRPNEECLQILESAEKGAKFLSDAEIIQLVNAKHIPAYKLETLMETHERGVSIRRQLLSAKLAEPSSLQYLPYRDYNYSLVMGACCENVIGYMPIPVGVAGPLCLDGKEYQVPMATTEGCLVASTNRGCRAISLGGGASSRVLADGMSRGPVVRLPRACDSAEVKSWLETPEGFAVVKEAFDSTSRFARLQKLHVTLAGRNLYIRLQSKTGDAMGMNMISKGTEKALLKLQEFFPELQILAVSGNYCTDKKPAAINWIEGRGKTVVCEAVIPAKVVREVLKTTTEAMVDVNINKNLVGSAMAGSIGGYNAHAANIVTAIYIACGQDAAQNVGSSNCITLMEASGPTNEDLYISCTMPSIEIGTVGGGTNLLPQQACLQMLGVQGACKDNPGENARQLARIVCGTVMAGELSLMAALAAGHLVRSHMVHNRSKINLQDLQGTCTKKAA
Nature of the assay: Test A. In Vitro Microsomal Assay of HMG-CoA Reductase Inhibition. The format is biochemical. The note with it: test substance 0.0005-2,000 μmolar, read-out: IC50, concentration producing a 50% inhibition of HMG-CoA reductase activity. As to the method:
Test A. In Vitro Microsomal Assay of HMG-CoA Reductase Inhibition:
This test is carried out precisely as described in column 53 of U.S. Pat. No. 4,613,610 and on page 30 of World (PCT) Published Patent Application No. 84/02131, both of which are hereby incorporated by reference as if set forth herein in their entirety. The concentration of the test substance (compound of Formula I) in the assay system is 0.0005-2,000 μmolar. The obtained IC50 is the concentration of the test substance in the assay system observed or calculated to produce a 50% inhibition of HMG-CoA reductase activity.

Consider `CC(C)c1sc(C(C)C)c(-c2ccc(F)cc2)c1/C=C/C(O)CC(O)CC(=O)O` (centres unmarked) [Example 8 (sodium salt)], for which the ED50 in assay [1] amounted to 0.076 mg/kg. Besides, the IC50 on HMG-CoA reductase was 27 nM. Regarding `CC[C@H](C)C(=O)O[C@H]1CCC=C2C=C[C@H](C)[C@H](CC[C@@H]3C[C@@H](O)CC(=O)O3)[C@H]21` [Compactin, reference compound], the ED50 in assay [1] worked out at 3.5 mg/kg. For the compound `CC[C@H](C)C(=O)O[C@H]1C[C@@H](C)C=C2C=C[C@H](C)[C@H](CC[C@@H]3C[C@@H](O)CC(=O)O3)[C@H]21` [Mevinolin, reference compound], the ED50 in assay [1] was determined as 0.41 mg/kg. As to `CC(C)c1oc(-c2ccccc2)c(-c2ccc(F)cc2)c1/C=C/C(O)CC(O)CC(=O)O` (centres unmarked) [Example 5b], the ED50 in assay [1] is 0.35 mg/kg. Besides, the IC50 on HMG-CoA reductase worked out at 190 nM.

For `CC(C)c1sc(-c2ccccc2)c(-c2ccccc2)c1/C=C/C(O)CC(O)CC(=O)O` (centres unmarked) [Example 5c, sodium(E)-7-(4-phenyl-2-isopropyl-5-phenylthien-3-yl)-3,5-dihydroxy-hept-6-enoate], the ED50 in assay [1] is 0.169 mg/kg. Further, the IC50 on HMG-CoA reductase stood at 28 nM.

Values taken from patent US4927851A, “Analogs of mevalonolactone and derivatives thereof” (Sandoz Pharm. Corp., priority 1988, dated 1990).
